By melting point is commonly meant the temperature of the solid-liquid transition. In turn, `CN(C)c1cc(C(F)(F)F)nc(Cl)n1` had a melting point of 106 to 108 °C.
For `COc1ccc(S(N)(=O)=O)c([N+](=O)[O-])c1` the value was 143 to 145 °C; for `CNS(=O)(=O)c1cccc(F)c1`, 58 to 60 °C; for `CC(=O)NCc1ccc(S(=O)(=O)NCC(=O)O)s1`, 192 to 194 °C.
For `CC(=O)NCCc1ccc(C(=O)C(C)Cl)cc1` (stereo not given) the value was 85 to 89 °C; for `CS(=O)(=O)c1cccc(Cl)c1C=O`, 102 to 104 °C.
As to `N#CCn1cc(N)cn1`, the melting point was in the range of 71 to 73 °C.
For `CCCCNS(=O)(=O)c1ccc(N)c(N)c1` the value was 48 to 52 °C; for `COC(=O)c1cc([N+](=O)[O-])cc([N+](=O)[O-])c1OC`, 69 to 71 °C.
For `COc1ccc(NS(=O)(=O)c2ccc(C=CC(=O)O)cc2)cc1` the value was 238 to 240 °C; for `O=C(O)CCn1cc([N+](=O)[O-])cn1`, 143 to 145 °C; for `NC(=O)C(N)c1cccc(Br)c1` (stereo not given), 107 to 109 °C.
The value for `CCC(c1ccc(Br)cc1)N1CCNCC1` (stereo not given) was 65 to 67 °C.
As for `COC(C)C(N)=S` (stereo not given), the melting point lay within 58 to 60 °C.
For `NNc1ccc(S(=O)(=O)NC2CCCCCCC2)cn1` the value was 140 to 142 °C.
For `CCOc1ccc(Nc2nc3ccccc3s2)cc1` the value was 169 to 171 °C.
`Fc1ccc2oc(Cl)nc2c1` registered a melting point of 33 to 35 °C.
In turn, `O=C(CCl)Cc1ccc(F)cc1` showed a melting point of 127 to 129 °C.
For `O=Cc1ccccc1OCc1cccnc1` the value was 57 to 59 °C.
In turn, `Cc1c[nH]c(=O)n1-c1ccc(F)c(F)c1` displayed a melting point of 250 to 252 °C.
`COc1ccc(Nc2nc(C(=O)O)cs2)cc1` displayed a melting point of 239 to 241 °C.
As for `Nc1cc(S(=O)(=O)N2CCOCC2)ccc1N1CCOCC1`, the melting point was 210 to 212 °C.
The value for `Nc1cc(Cl)c(Cl)nc1N` was 149 to 151 °C; that for `O=C(O)c1cc(-c2cccc(Cl)c2)nc2nc(N3CCCCC3)sc12` was 199 to 203 °C; that for `Cc1ccc(-c2noc(CCC(=O)O)n2)cc1F` was 142 to 144 °C.
For `COC(=O)c1cccc(-c2nc(CCl)cs2)c1` the value was 129 to 131 °C; for `Clc1nccc(N2CCCC2)n1`, 121 to 123 °C; for `O=C(O)CCOC1CCOCC1`, 54 to 56 °C.
For `O=C(O)CC(O)(c1ccccc1)C(F)(F)F` (stereo not given) the value was 133 to 135 °C; for `Cc1ccc(-c2nc(CC(=O)O)cs2)cc1`, 139 to 141 °C.
Consider `CCOC(=O)c1cnn(-c2ccc(C(F)(F)F)cn2)c1C`, for which the melting point lay within 88 to 90 °C.
Take `O=C(Nc1cccc(C(=O)O)c1)Nc1ccc(Cl)c(Cl)c1`: the melting point was in the range of 279 to 281 °C.
As to `Nc1cc(F)cc(C(=O)O)c1F`, the melting point fell in the range of 161 to 163 °C.
As to `Cc1ccc2nc(C3CC3)cc(C(=O)O)c2c1`, the melting point was in the range of 207 to 209 °C.
`O=C(O)c1sccc1S(=O)(=O)N1CCC(O)CC1` came in with a melting point of 219 to 221 °C.
Compound `O=C(O)CCn1ncc2ccc([N+](=O)[O-])cc21` displayed a melting point of 151 to 153 °C.
The value for `O=C(O)CC1COC(=O)C1` (stereo not given) was 83 to 85 °C; that for `Cc1ccc([N+](=O)[O-])cc1C(C)Cl` (stereo not given) was 44 to 46 °C.
On to `O=C1COc2cc(Br)c(S(=O)(=O)Cl)cc2N1`, for which the melting point lay within 211 to 213 °C.
As for `Cc1ccc(S(=O)(=O)N(C)c2ccc(O)cc2)cc1`, the melting point lay within 137 to 139 °C.
For `COc1ccc(OC)c(C(C)NC(=O)C(C)Cl)c1` (stereo not given) the value was 96 to 98 °C; for `Cc1ccc(Br)cc1NC(=O)CN`, 141 to 143 °C.
On to `COc1cccc(NCC(=O)NN)c1`, for which the melting point was 108 to 112 °C.
Compound `O=C(O)Cc1ccc(NC(=O)c2ccc(Br)cc2)cc1` displayed a melting point of 269 to 271 °C.
For `N#Cc1ccc2ncc(C=O)n2c1` the value was 184 to 186 °C; for `CC(C)(C)OC(=O)NCCNC(=O)C1CCCNC1` (stereo not given), 130 to 132 °C.
As to `NCC(O)CN1CCc2ccccc2C1` (stereo not given), the melting point was 59 to 61 °C.
For `Nc1nnc(SCc2ccccc2)[nH]1` the value was 99 to 101 °C; for `O=C(Nc1cccc(-c2nnnn2C2CC2)c1)OCC(F)(F)F`, 124 to 126 °C; for `COc1cc(Br)c(S(=O)(=O)Cl)cc1OC`, 92 to 94 °C.
In turn, `CC(=O)c1c(C)nc2ccccc2c1N` had a melting point of 152 to 154 °C.
For `CNC1(CO)CCC(c2ccccc2)CC1` (stereo not given) the value was 127 to 129 °C; for `Nc1noc(-c2ccc(Cl)cc2)n1`, 255 to 257 °C; for `Cc1cc2oc(=O)cc(CCl)c2cc1C`, 188 to 190 °C.
For `COC(=O)NS(=O)(=O)Cl`, the melting point was in the range of 69 to 71 °C.
The value for `CC(O)Cc1ccc(Br)c(F)c1` (stereo not given) was 36 to 38 °C; that for `Cc1cc(=O)[nH]c(-c2ncccn2)n1` was 172 to 174 °C; that for `Cc1c(C)n(Cc2ccccc2)c2ncnc(N)c12` was 175 to 177 °C.
For `NNC(=S)Nc1ccccc1F` the value was 159 to 161 °C; for `O=[N+]([O-])c1cccc2c1CCCN2`, 79 to 81 °C; for `O=C(OCc1ccccc1)N1CCC(S(=O)(=O)Cl)CC1`, 62 to 64 °C.
The value for `O=C(O)CSC(O)C(=O)c1ccccc1` (stereo not given) was 113 to 115 °C; that for `NC(c1ccccc1)c1ccncc1` (stereo not given) was 40 to 42 °C; that for `CC(C)(C)OC(=O)N1CCC2(CC1)CC2C(=O)NN` (stereo not given) was 132 to 134 °C.
On to `NS(=O)(=O)c1ccc(C(=O)O)o1`, for which the melting point is 212 to 214 °C.
For `CCc1n[nH]c(N)c1Br`, the melting point lay within 117 to 119 °C.
The value for `COc1ccc2[nH]cc(C(=O)CC#N)c2c1` was 289 to 291 °C.
For the compound `O=C(O)c1cccc(-n2nccc2C(F)(F)F)c1`, the melting point is 158 to 160 °C.
In turn, `Cc1ccc(C(=O)NC=C(Cl)Cl)cc1` had a melting point of 96 to 98 °C.
`COc1ccccc1Nc1nc(N)nc(CCl)n1` had a melting point of 160 to 162 °C.
Compound `NC(=S)NCc1ccccc1` registered a melting point of 163 to 165 °C.
On to `O=c1c(Br)c[nH]cc1[N+](=O)[O-]`, for which the melting point was in the range of 332 to 334 °C.
`CCOC(=O)Cc1ccc(F)cc1` displayed a melting point of 29 to 31 °C.
As to `Nc1nc2c(OCC(F)(F)F)cccc2s1`, the melting point fell in the range of 170 to 172 °C.
With `O=C(O)c1ccc(Oc2cccnc2)cc1`, the melting point fell in the range of 204 to 206 °C.
The value for `NC1CCCN(c2cc(C(=O)O)ccn2)C1` (stereo not given) was 252 to 254 °C; that for `NS(=O)(=O)c1ccccc1-c1ccccc1` was 116 to 118 °C.
The value for `O=C(O)c1cc([N+](=O)[O-])ccc1SC1CCCC1` was 203 to 205 °C; that for `CCC(=O)N(C)c1ccccc1C(=O)O` was 193 to 195 °C; that for `COC(=O)c1cc(OC)c(OC)c(OC)c1N` was 44 to 45 °C.
For `COc1ccccc1-n1nnnc1S` the value was 153 to 155 °C; for `CN(C)C(=O)Sc1ccc(CCl)cc1`, 78 to 80 °C; for `O=C1NCC(Br)C(=O)N1` (stereo not given), 200 to 202 °C.
In turn, `O=CN1CC(=O)NC(=O)C1` had a melting point of 213 to 215 °C.
For the compound `CC(C)(C)c1nnc(N)o1`, the melting point was in the range of 226 to 228 °C.
As to `O=Cc1cc(-c2ccccc2)ccc1O`, the melting point lay within 99 to 101 °C.
As for `N#Cc1ccc(Nc2ccc(Cl)cc2)cc1`, the melting point fell in the range of 139 to 141 °C.
Regarding `O=C(O)c1cn2ccccc2n1`, the melting point fell in the range of 242 to 244 °C.
The compound `COc1cc(NC(=O)C2CCCCC2)c(C(=O)O)cc1OC` gave a melting point of 155 to 157 °C.
The value for `O=C(O)C=Cc1cnc2ccccc2n1` was 233 to 235 °C; that for `O=c1c2ccccc2[nH]c2ccc(O)cc12` was 319 to 321 °C; that for `CC(C)(C)OC(=O)NCC1(C(=O)O)CCCC1` was 123 to 125 °C.
`Cc1nn(Cc2c(Cl)cccc2Cl)c2sc(C(=O)O)cc12`: the melting point was 282 to 284 °C.
For `CC(C)c1cc(C(=O)O)c2ccccc2n1`, the melting point lay within 141 to 143 °C.
In the case of `Cc1cccc2c1OCC2=O`, the melting point is 83 to 85 °C.
The value for `NC(=O)CNC(=O)c1cccc(O)c1` was 179 to 181 °C; that for `COc1ccc(C=O)cc1C#N` was 119 to 121 °C; that for `CC(=O)Nc1cccc(CO)c1` was 113 to 115 °C.
With `CC(C)(C)OC(=O)N1CC2CCC(O)C2C1` (stereo not given), the melting point was 61 to 63 °C.
The value for `O=C1NCCNc2ccccc21` was 151 to 153 °C.
The value for `COc1ccccc1NS(=O)(=O)c1ccc(O)c(N)c1` was 167 to 169 °C; that for `Cc1c(NC(=O)C(C)Cl)cccc1[N+](=O)[O-]` (stereo not given) was 120 to 122 °C; that for `CC1CCC(NC(=O)OC(C)(C)C)(C(=O)O)CC1` (stereo not given) was 151 to 153 °C.
`O=C(O)CNC(=O)c1ncccc1O` showed a melting point of 234 to 236 °C.
For `O=C(O)CC1CCOc2ccccc21` (stereo not given) the value was 89 to 91 °C; for `COc1cc(S(=O)(=O)Cl)ccc1[N+](=O)[O-]`, 75 to 77 °C.
For `O=C(O)c1cc([N+](=O)[O-])ccc1N1CCCCC1` the value was 194 to 196 °C; for `Clc1ccc2c(c1)CCCN2`, 37 to 39 °C; for `CC1(C(=O)O)CCCN1C(=O)OCc1ccccc1` (stereo not given), 119 to 121 °C.
Compound `CCC(CC)n1nc(C)cc1C(=O)O` registered a melting point of 149 to 151 °C.
For `Nc1ccc2c(c1)oc1ccccc12` the value was 89 to 91 °C; for `Cn1c(SCC(=O)O)nnc1-c1cccs1`, 205 to 207 °C; for `NC(=O)c1cccc(O)c1`, 163 to 165 °C.
The value for `O=C(O)c1cc(Br)sc1Br` was 179 to 181 °C; that for `Cc1ncc(C=O)n1-c1ccc(Br)cc1` was 110 to 112 °C; that for `Cn1nc(C(F)(F)F)c(C(=O)O)c1C(F)(F)Cl` was 119 to 121 °C.
Compound `Cc1ccc(S(=O)(=O)OCC2CCOCO2)cc1` (stereo not given) had a melting point of 63 to 65 °C.
The value for `O=c1c2ccccc2ncn1CCCl` was 124 to 126 °C; that for `Cc1ccc2nc(S)n(C)c(=O)c2c1` was 275 to 277 °C; that for `N#CCCNc1ccc(F)cc1` was 38 to 42 °C.

Values taken from a melting point compilation (Tetko et al.).
